The results in this text go back to patent publication US10144706B2 (BRISTOL-MYERS SQUIBB COMPANY, priority 2016, dated 2018).

T1 sequence (Q9NZQ7 with tags, fused parts or gaps): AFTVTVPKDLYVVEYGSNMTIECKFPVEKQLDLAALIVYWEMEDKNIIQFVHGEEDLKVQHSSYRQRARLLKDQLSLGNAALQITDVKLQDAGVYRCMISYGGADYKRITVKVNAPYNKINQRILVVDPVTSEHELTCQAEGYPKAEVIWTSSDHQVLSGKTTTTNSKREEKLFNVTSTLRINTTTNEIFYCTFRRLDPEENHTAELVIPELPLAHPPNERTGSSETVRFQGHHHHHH

One experiment has as its target T1, PD-1/PD-L1 interaction (PD-1-Ig / PD-L1-His) (Homo sapiens, UniProt Q9NZQ7).
T1 construct: hPDL1(18-239)-TVMV-His; TVMV protease site linker (C); made in house; host or cells: HEK293T
Put plainly: PD-1/PD-L1 Homogenous Time-Resolved Fluorescence (HTRF) binding assay. The conditions noted are these: IC50 range class; PD-L1-His 10 nM, PD-1-Ig 20 nM; read-out: Range or IC50. The essentials: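 HTRF detection used 1 nM europium-cryptate anti-Ig and 20 nM APC anti-His. Compounds first saw 10 nM PD-L1-His for 15 min, and 20 nM PD-1-Ig was then added for another 15 min. Buffer was dPBS plus 0.1% BSA and 0.05% Tween-20. All concentrations are final.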
Consider `Cc1c(COc2cc(OCc3cncc(C#N)c3)c(CO)cc2Cl)cccc1-c1cccc(COc2cc(OCc3cncc(C#N)c3)c(CN3CC[C@@H](O)C3)cc2Cl)c1C` [Example 2126, (R)-5-((4-chloro-5-((3′-((2-chloro-5-((5-cyanopyridin-3-yl)methoxy)-4-((3-hydroxypyrrolidin-1-yl)methyl)phenoxy)methyl)-2,2′-dimethyl-[1,1′-biphenyl]-3-yl)methoxy)-2-(hydroxymethyl)phenoxy)methyl)nicotinonitrile], for which the IC50 is 20.1 to 90 nM.

As to `Cc1c(COc2cc(OCc3cncc(C#N)c3)c(CNC[C@H](O)CO)cc2Cl)cccc1-c1cccc(COc2cc(OCc3cncc(C#N)c3)c(CNC[C@H](O)CO)cc2Cl)c1C` [Example 2127, 5,5′-((((((2,2′-dimethyl-[1,1′-biphenyl]-3,3′-diyl)bis(methylene))bis(oxy))bis(4-chloro-6-((((S)-2,3-dihydroxypropyl)amino)methyl)-3,1-phenylene))bis(oxy))bis(methylene))dinicotinonitrile], the IC50 was 0.04 to 20 nM.

Consider `Cc1c(COc2cc(OCc3cncc(C#N)c3)c(CNC(CO)CO)cc2Cl)cccc1-c1cccc(COc2cc(OCc3cncc(C#N)c3)c(CNC(CO)CO)cc2Cl)c1C` [Example 2128, 5,5′-((((((2,2′-dimethyl-[1,1′-biphenyl]-3,3′-diyl)bis(methylene))bis(oxy))bis(4-chloro-6-(((1,3-dihydroxypropan-2-yl)amino)methyl)-3,1-phenylene))bis(oxy))bis(methylene))dinicotinonitrile], for which the IC50 lay in the range of 0.04 to 20 nM.

Take `Cc1c(COc2cc(OCc3cncc(C#N)c3)c(CO)cc2Cl)cccc1-c1cccc(COc2cc(OCc3cncc(C#N)c3)c(CNC(CO)CO)cc2Cl)c1C` [Example 2129, 5-((4-chloro-5-((3′-((2-chloro-5-((5-cyanopyridin-3-yl)methoxy)-4-(((1,3-dihydroxypropan-2-yl)amino)methyl)phenoxy)methyl)-2,2′-dimethyl-[1,1′-biphenyl]-3-yl)methoxy)-2-(hydroxymethyl)phenoxy)methyl)nicotinonitrile]: the IC50 lay within 90.1 to 1000 nM.

As for `Cc1c(COc2cc(OCc3cncc(C#N)c3)c(CN(C[C@H](O)CO)C(CO)CO)cc2Cl)cccc1-c1cccc(COc2cc(OCc3cncc(C#N)c3)c(CN(C[C@H](O)CO)C(CO)CO)cc2Cl)c1C` [Example 2131, 5,5′-((((((2,2′-dimethyl-[1,1′-biphenyl]-3,3′-diyl)bis(methylene))bis(oxy))bis(4-chloro-6-(((1,3-dihydroxypropan-2-yl)((S)-2,3-dihydroxypropyl)amino)methyl)-3,1-phenylene))bis(oxy))bis(methylene))dinicotinonitrile], the IC50 lay in the range of 0.04 to 20 nM.

For `Cc1c(OCCCNC2C[C@H](CO)[C@@H](O)[C@H]2O)cccc1-c1cccc(OCCCN[C@@H]2C[C@H](CO)[C@@H](O)[C@H]2O)c1C` (stereo partly drawn) [Example 2132, (1R,2S,5R)-3-((3-((3′-(3-(((1R,2S,3R,4R)-2,3-dihydroxy-4-(hydroxymethyl)cyclopentyl)amino)propoxy)-2,2′-dimethyl-[1,1′-biphenyl]-3-yl)oxy)propyl)amino)-5-(hydroxymethyl)cyclopentane-1,2-diol], the IC50 fell in the range of 0.04 to 20 nM.

Consider `Cc1c(COc2cc(OCc3cncc(C#N)c3)c(CN3C(=O)OCC3CO)cc2Cl)cccc1-c1cccc(COc2cc(OCc3cncc(C#N)c3)c(CN3C(=O)OCC3CO)cc2Cl)c1C` (centres unmarked) [Example 2133, 5,5′-((((((2,2′-dimethyl-[1,1′-biphenyl]-3,3′-diyl)bis(methylene))bis(oxy))bis(4-chloro-6-((4-(hydroxymethyl)-2-oxooxazolidin-3-yl)methyl)-3,1-phenylene))bis(oxy))bis(methylene))dinicotinonitrile], for which the IC50 was 90.1 to 1000 nM.

For the compound `NCCCOc1cccc(-c2cccc(OCCCN)c2Cl)c1Cl` [Example 2134, 3,3′-((2,2′-dichloro-[1,1′-biphenyl]-3,3′-diyl)bis(oxy))bis(propan-1-amine)], the IC50 fell in the range of 90.1 to 1000 nM.

For the compound `O=C(NCCCOc1cccc(-c2cccc(OCCCNC(=O)C(O)CO)c2Cl)c1Cl)C(O)CO` (centres unmarked) [Example 2135, N,N′-(((2,2′-dichloro-[1,1′-biphenyl]-3,3′-diyl)bis(oxy))bis(propane-3,1-diyl))bis(2,3-dihydroxypropanamide)], the IC50 was 1000 to 10000 nM.

Regarding `Cc1c(OCCCN2CC[C@@H](O)C2)cccc1-c1cccc(OCCCN2CC[C@@H](O)C2)c1C` [Example 3001, (3R,3′R)-1,1′-(((2,2′-dimethyl-[1,1′-biphenyl]-3,3′-diyl)bis(oxy))bis(propane-3,1-diyl))bis(pyrrolidin-3-ol)], the IC50 was 0.04 to 20 nM.

Regarding `Cc1c(OCCCCN2CC[C@@H](O)C2)cccc1-c1cccc(OCCCN2CC[C@@H](O)C2)c1C` [Example 3002, (R)-1-(3-((3′-(4-((R)-3-hydroxypyrrolidin-1-yl)butoxy)-2,2′-dimethyl-[1,1′-biphenyl]-3-yl)oxy)propyl) pyrrolidin-3-ol], the IC50 was in the range of 0.04 to 20 nM.

For the compound `Cc1c(OCCCCCN2CC[C@@H](O)C2)cccc1-c1cccc(OCCCN2CC[C@@H](O)C2)c1C` [Example 3003, (R)-1-(3-((3′-((5-((R)-3-hydroxypyrrolidin-1-yl)pentyl)oxy)-2,2′-dimethyl-[1,1′-biphenyl]-3-yl)oxy)propyl)pyrrolidin-3-ol], the IC50 fell in the range of 0.04 to 20 nM.

Turning to `Cc1cc(OCCCN2CC[C@@H](O)C2)ccc1-c1cccc(OCCCCN2CC[C@@H](O)C2)c1C` [Example 3004, (R)-1-(3-((3′-(4-((R)-3-hydroxypyrrolidin-1-yl)butoxy)-2,2′-dimethyl-[1,1′-biphenyl]-4-yl)oxy)propyl) pyrrolidin-3-ol], the IC50 is 1000 to 10000 nM.

With `Cc1cc(OCCCN2CC[C@@H](O)C2)ccc1-c1cccc(OCCCCCN2CC[C@@H](O)C2)c1C` [Example 3005, (R)-1-(3-((3′-((5-((R)-3-hydroxypyrrolidin-1-yl)pentyl)oxy)-2,2′-dimethyl-[1,1′-biphenyl]-4-yl)oxy)propyl)pyrrolidin-3-ol], the IC50 was 1000 to 10000 nM.

As to `Cc1cc(OCCCN2CC[C@@H](O)C2)ccc1-c1cccc(OCCCN2CC[C@@H](O)C2)c1C` [Example 3006, (3R,3′R)-1,1′-(((2,2′-dimethyl-[1,1′-biphenyl]-3,4′-diyl)bis(oxy))bis(propane-3,1-diyl))bis(pyrrolidin-3-ol)], the IC50 is 1000 to 10000 nM.

For `Cc1c(OCCCN(C)C)cccc1-c1cccc(OCCCN2CC[C@@H](O)C2)c1C` [Example 3007, (R)-1-(3-((3′-(3-(dimethylamino)propoxy)-2,2′-dimethyl-[1,1′-biphenyl]-3-yl)oxy)propyl)pyrrolidin-3-ol], the IC50 was in the range of 0.04 to 20 nM.

Consider `Cc1c(OCCCN2CC[C@@H](O)C2)cccc1-c1cccc(C(=O)NCCCCN2CC[C@@H](O)C2)c1C` [Example 3008, N-(4-((R)-3-hydroxypyrrolidin-1-yl)butyl)-3′-(3-((R)-3-hydroxypyrrolidin-1-yl)propoxy)-2,2′-dimethyl-[1,1′-biphenyl]-3-carboxamide], for which the IC50 lay in the range of 1000 to 10000 nM.

In the case of `Cc1c(OCCCN2CC[C@@H](O)C2)cccc1-c1cccc(C(=O)NCCCN2CC[C@@H](O)C2)c1C` [Example 3009, 3′-(3-((R)-3-hydroxypyrrolidin-1-yl)propoxy)-N-(3-((R)-3-hydroxypyrrolidin-1-yl)propyl)-2,2′-dimethyl-[1,1′-biphenyl]-3-carboxamide], the IC50 lay in the range of 1000 to 10000 nM.

For the compound `Cc1c(OCCCN2CC[C@@H](O)C2)cccc1-c1cccc(OCc2cncc(C#N)c2)c1C` [Example 3011], the IC50 was in the range of 20.1 to 90 nM.

Consider `Cc1cc(OCCCN2CC[C@@H](O)C2)ccc1-c1ccc(OCCCN2CC[C@@H](O)C2)cc1C` [Example 3012, (3R,3′R)-1,1′-(((2,2′-dimethyl-[1,1′-biphenyl]-4,4′-diyl)bis(oxy))bis(propane-3,1-diyl))bis(pyrrolidin-3-ol)], for which the IC50 was above 10000 nM.

In the case of `Cc1c(NC(=O)CCN2CC[C@@H](O)C2)cccc1-c1cccc(OCCCN2CC[C@@H](O)C2)c1C` [Example 3013, 3-((R)-3-hydroxypyrrolidin-1-yl)-N-(3′-(3-((R)-3-hydroxypyrrolidin-1-yl)propoxy)-2,2′-dimethyl-[1,1′-biphenyl]-3-yl)propanamide], the IC50 lay in the range of 1000 to 10000 nM.

`Cc1c(NC(=O)NCCC(=O)O)cccc1-c1cccc(OCCCN2CC[C@@H](O)C2)c1C` [Example 3014, (R)-3-(3-(3′-(3-(3-hydroxypyrrolidin-1-yl)propoxy)-2,2′-dimethyl-[1,1′-biphenyl]-3-yl)ureido)propanoic acid]: the IC50 was above 10000 nM.

In the case of `Cc1c(OCCCN2CC[C@@H](O)C2)cccc1-c1cccc(C(=O)NCCN2CC[C@@H](O)C2)c1C` [Example 3015, N-(2-((R)-3-hydroxypyrrolidin-1-yl)ethyl)-3′-(3-((R)-3-hydroxypyrrolidin-1-yl)propoxy)-2,2′-dimethyl-[1,1′-biphenyl]-3-carboxamide], the IC50 was above 10000 nM.

For `Cc1c(OCCCN2CC[C@@H](O)C2)cccc1-c1cccc(S(=O)(=O)NCCN2CC[C@@H](O)C2)c1C` [Example 3016, N-(2-((R)-3-hydroxypyrrolidin-1-yl)ethyl)-3′-(3-((R)-3-hydroxypyrrolidin-1-yl)propoxy)-2,2′-dimethyl-[1,1′-biphenyl]-3-sulfonamide], the IC50 was above 10000 nM.

The experiment is the same for the next values; noted with them: numeric IC50; PD-L1-His 10 nM, PD-1-Ig 20 nM; read-out: Range or IC50.
As for `O=C(O)C[C@@H](O)C(=O)NCCCOc1cccc(-c2cccc(OCCCNC(=O)[C@H](O)CC(=O)O)c2Cl)c1Cl` [Example 2136, (3R,3′R)-4,4′-((((2,2′-dichloro-[1,1′-biphenyl]-3,3′-diyl)bis(oxy))bis(propane-3,1-diyl))bis(azanediyl))bis(3-hydroxy-4-oxobutanoic acid)], the IC50 was determined as 3450 nM.

Turning to `Cc1c(OCCCN2CC[C@@H](O)C2)cccc1-c1cccc(S(=O)(=O)NCCCN(C)C)c1C` [Example 3010, (R)—N-(3-(dimethylamino)propyl)-3′-(3-(3-hydroxypyrrolidin-1-yl)propoxy)-2,2′-dimethyl-[1,1′-biphenyl]-3-sulfonamide], the IC50 is 10000 nM.

Broadly, the IC50 is the point on the concentration scale where inhibition reaches its midpoint.
